# Calls of active or inactive are those of the source. The rule behind the calls is not given here.
# Tests used:
# [1] = tested on: HL-60; assay: Cytotoxic activity against human HL60 cells; format: cell-based
# [2] = tested on: HeLa; assay: Cytostatic activity against human HeLa cells; format: cell-based
# [3] = tested on: HeLa; assay: Cytotoxic activity against human HeLa cells; format: cell-based
# [4] = Cytotoxicity against human HepG2 cells after 96 hrs by CCK8 assay; format: cell-based
# [5] = tested on: HL-60; assay: Cytostatic activity against human HL60 cells; format: cell-based
# [6] = tested on: dengue virus type 2; assay: Antiviral activity against Dengue virus 2 NGC infected in human HuH7-Ehr2 cells after 48 hrs by luciferase reporter gene assay; format: functional, organism-based; conditions: Huh-7, 48 h
# [7] = tested on: THP-1; assay: Cytotoxicity against human THP1 cells after 96 hrs by CCK8 assay; format: cell-based; conditions: THP-1, 96 h
# [8] = tested on: CCRF-CEM; assay: Cytostatic activity against human CCRF-CEM cells; format: cell-based
# [9] = tested on: CCRF-CEM; assay: Cytotoxic activity against human CCRF-CEM cells; format: cell-based
# [10] = tested on: Hepatitis C virus; assay: Antiviral activity against Hepatitis C virus; format: functional, organism-based; conditions: Hepacivirus hominis
smiles,measurement,setting,value
OC[C@H]1O[C@@H](n2c3ccc(Cl)cc3c3c(-c4cccs4)ncnc32)[C@H](O)[C@@H]1O,Activity,[1],Non-toxic
same,Activity,[2],Non-toxic
same,Activity,[3],Non-toxic
same,CC50 at 96 h,[4],19.9 µM
same,Activity,[5],Non-toxic
same,IC50,[6],0.335 µM
same,IC50,[7],45.9 µM
same,Activity,[8],Non-toxic
same,Activity,[9],Non-toxic
same,Activity,[10],inactive
OC[C@H]1O[C@@H](n2c3ccc(Cl)cc3c3c(-c4cc5ccccc5o4)ncnc32)[C@H](O)[C@@H]1O,Activity,[1],Non-toxic
same,Activity,[2],Non-toxic
same,Activity,[3],Non-toxic
same,CC50 at 96 h,[4],> 50 µM
same,Activity,[5],Non-toxic
same,IC50,[6],0.976 µM
same,IC50,[7],> 50 µM
same,Activity,[8],Non-toxic
same,Activity,[9],Non-toxic
same,Activity,[10],inactive
OC[C@H]1O[C@@H](n2c3ccc(Cl)cc3c3c(-c4ccsc4)ncnc32)[C@H](O)[C@@H]1O,Activity,[1],Non-toxic
same,Activity,[2],Non-toxic
same,Activity,[3],Non-toxic
same,CC50 at 96 h,[4],> 50 µM
same,Activity,[5],Non-toxic
same,IC50,[6],87 µM
same,IC50,[7],> 50 µM
same,Activity,[8],Non-toxic
same,Activity,[9],Non-toxic
same,Activity,[10],inactive
OC[C@H]1O[C@@H](n2c3ccc(Cl)cc3c3c(-c4ccccc4)ncnc32)[C@H](O)[C@@H]1O,Activity,[1],Non-toxic
same,Activity,[2],Non-toxic
same,Activity,[3],Non-toxic
same,CC50 at 96 h,[4],> 50 µM
same,Activity,[5],Non-toxic
same,IC50,[6],26.4 µM
same,IC50,[7],> 50 µM
same,Activity,[8],Non-toxic
same,Activity,[9],Non-toxic
same,Activity,[10],inactive
OC[C@H]1O[C@@H](n2c3ccccc3c3c(-c4ccco4)ncnc32)[C@H](O)[C@@H]1O,Activity,[1],Non-toxic
same,Activity,[2],Non-toxic
same,Activity,[3],Non-toxic
same,CC50 at 96 h,[4],> 50 µM
same,Activity,[5],Non-toxic
same,IC50,[6],82.7 µM
same,IC50,[7],> 50 µM
same,Activity,[8],Non-toxic
same,Activity,[9],Non-toxic
same,Activity,[10],inactive
OC[C@H]1O[C@@H](n2c3ccc(Cl)cc3c3c(-c4ccoc4)ncnc32)[C@H](O)[C@@H]1O,Activity,[1],Non-toxic
same,Activity,[2],Non-toxic
same,Activity,[3],Non-toxic
same,CC50 at 96 h,[4],> 50 µM
same,Activity,[5],Non-toxic
same,IC50,[6],24.4 µM
same,IC50,[7],> 50 µM
same,Activity,[8],Non-toxic
same,Activity,[9],Non-toxic
same,Activity,[10],inactive
OC[C@H]1O[C@@H](n2c3ccc(-c4ccccc4)cc3c3c(-c4ccco4)ncnc32)[C@H](O)[C@@H]1O,Activity,[1],Non-toxic
same,Activity,[2],Non-toxic
same,Activity,[3],Non-toxic
same,CC50 at 96 h,[4],20.7 µM
same,Activity,[5],Non-toxic
same,IC50,[6],2.91 µM
same,IC50,[7],41.3 µM
same,Activity,[8],Non-toxic
same,Activity,[9],Non-toxic
same,Activity,[10],inactive
OC[C@H]1O[C@@H](n2c3ccc(-c4ccco4)cc3c3c(-c4ccco4)ncnc32)[C@H](O)[C@@H]1O,Activity,[1],Non-toxic
same,Activity,[2],Non-toxic
same,Activity,[3],Non-toxic
same,CC50 at 96 h,[4],7.44 µM
same,Activity,[5],Non-toxic
same,IC50,[6],17.9 µM
same,IC50,[7],> 50 µM
same,Activity,[8],Non-toxic
same,Activity,[9],Non-toxic
same,Activity,[10],inactive
OC[C@H]1O[C@@H](n2c3ccc(-c4ccoc4)cc3c3c(-c4ccco4)ncnc32)[C@H](O)[C@@H]1O,Activity,[1],Non-toxic
same,Activity,[2],Non-toxic
same,Activity,[3],Non-toxic
same,CC50 at 96 h,[4],33.1 µM
same,Activity,[5],Non-toxic
same,IC50,[6],32.1 µM
same,IC50,[7],45 µM
same,Activity,[8],Non-toxic
same,Activity,[9],Non-toxic
same,Activity,[10],inactive
OC[C@H]1O[C@@H](n2c3ccc(Cl)cc3c3c(-c4ccco4)ncnc32)[C@H](O)[C@@H]1O,Activity,[1],Non-toxic
same,Activity,[2],Non-toxic
same,Activity,[3],Non-toxic
same,CC50 at 96 h,[4],0.175 µM
same,Activity,[5],Non-toxic
same,IC50,[6],0.238 µM
same,IC50,[7],1.56 µM
same,Activity,[8],Non-toxic
same,Activity,[9],Non-toxic
same,Activity,[10],inactive
